Source: patent US11478469B2, “Combination product of BCL-2 inhibitor and MDM2 inhibitor and use thereof in the prevention and/or treatment of diseases” (ASCENTAGE PHARMA (SUZHOU) CO., LTD., priority 2018, dated 2022)

How the values were obtained:
Type in all cases: cell-based
[1] = test system: MV-4-11 (acute myeloid leukemia (AML)); assay: CellTiter-Glo (CTG) cell proliferation assay, MV-4-11; details: Homo sapiens, MV4-11; MV-4-11, single agent alone, 24 hours; read-out: IC50 for inhibition of proliferation
Experimental: (§1) Anti-proliferative effects were tested by CellTiter-Glo® (CTG) assay. Cells were seeded in 96-well plates and treated with different concentrations of test substance for 24 hours. […] Each test dose was tested with 3 replicate wells. Usually, 9 series of doses of the test substance were selected, and added to 96-well plates, 5 μl/well. For the combination experiment, the final volume of the two test substances was 5 μl/well. Each test dose was tested with 3 replicate wells. On the same plate, 3-6 wells were selected and added with 100 μl of dilution solution as a control group, and another 3-6 wells were used as a blank control. […] After mixing on a shaker for 2 minutes, leaving at room temperature for 10 minutes, the fluorescence value was read by using a Biotek synergy HIMF plate reader. […] For the combination test, the cell viability was calculated by normalizing the average OD value of 3 duplicate wells of the single drug control. […] Cell viability (%) values of Compound 6 alone and the combination of Compound 6 and APG-115 in the following malignant tumor cells were determined in the CTG experiment: OCI-AML-3 (acute myeloid leukemia (AML)), MV-4-11 (acute myeloid leukemia (AML)), KMS-26 (multiple myeloma (MM)), KMS-11 (multiple myeloma (MM)).

[2] = test system: OCI-AML-3 (acute myeloid leukemia (AML)); assay: CellTiter-Glo (CTG) cell proliferation assay, OCI-AML-3; details: Homo sapiens; OCI-AML-3, single agent alone, 24 hours; read-out: IC50 for inhibition of proliferation
Experimental: as §1

[3] = test system: KMS-26 (multiple myeloma (MM)); assay: CellTiter-Glo (CTG) cell proliferation assay, KMS-26; details: KMS-26, single agent alone, 24 hours; read-out: IC50 for inhibition of proliferation
Experimental: (§2) Anti-proliferative effects were tested by CellTiter-Glo® (CTG) assay. Cells were seeded in 96-well plates and treated with different concentrations of test substance for 24 hours. By using 9 different concentrations of Compound 6 (which were selected in a 3× gradient between 10-3 and 101 μM, i.e., 0.0016, 0.0045, 0.014, 0.041, 0.12, 0.36, 1.1, 3.2, 10 μM) in combination with 3 different concentrations of MDM2 inhibitor (e.g., APG-115) in action for 24 hours, the effects of Compound 6 in combination with the drug were tested. Each test dose was tested with 3 replicate wells.
(§3) Usually, 9 series of doses of the test substance were selected, and added to 96-well plates, 5 μl/well. For the combination experiment, the final volume of the two test substances was 5 μl/well. […] After mixing on a shaker for 2 minutes, leaving at room temperature for 10 minutes, the fluorescence value was read by using a Biotek synergy HIMF plate reader. Using the average fluorescence value of 3 replicate wells, the percentage of cell viability was calculated by the following formula: Cell viability (%)=(fluorescence value of test well—fluorescence value of negative control well)/(fluorescence value of vehicle control-fluorescence value of negative control group)×100%
(§4) The IC50 was calculated using the nonlinear regression data analysis method of Graphpad Prism 6.0 software ([…]). […]

[4] = test system: KMS-11 (multiple myeloma (MM)); assay: CellTiter-Glo (CTG) cell proliferation assay, KMS-11; details: Homo sapiens; KMS-11, single agent alone, 24 hours; read-out: IC50 for inhibition of proliferation
Experimental: as §2, §3, §4

SMILES | IC50 [1] [µM] | IC50 [2] [µM] | IC50 [3] [µM] | IC50 [4] [µM]
CCN1[C@@H](C(=O)NC23CCC(C(=O)O)(CC2)CC3)[C@H](c2cccc(Cl)c2F)[C@]2(C(=O)Nc3cc(Cl)ccc32)C12CCCCC2 [APG-115] | 1.96 | 2.37 | – | –
O=C(NS(=O)(=O)c1ccc(NC[C@H]2COCCO2)c([N+](=O)[O-])c1)c1ccc(N2CCN(CC3=C(c4ccc(Cl)cc4)CC4(CCC4)CC3)CC2)cc1Oc1cnc2[nH]ccc2c1 [Compound 6, (S)-N-((4-(((1,4-dioxan-2-yl)methyl)amino)-3-nitrophe-nyl)sulfonyl)-2-((1H-pyrrolo[2,3-b]pyridin-5-yl)oxy)-4-(4-((6-(4-chlorophenyl)spiro[3.5]non-6-en-7-yl)meth-yl)piperazin-1-yl)benzamide] | 0.0847 | 10.2 | 14.7 | 10.8
